Results published in patent US11685782B2, “Methods of treating cancer using LSD1 inhibitors in combination with immunotherapy” (Children's Medical Center Corporation, priority 2017, dated 2023).

Tests used:
[1] = test system: MCF-7 cells; assay: RT-qPCR of selected ERVs, interferons and ISGs in MCF-7 cells treated with GSK-LSD1 (compound screen); format: cell-based, human; conditions: GSK-LSD1 for 6 days, RT-qPCR normalized to GAPDH, relative to DMSO (FIG. 1A)
Method: FIG. 1A is a bar graph showing quantitative reverse transcription polymerase chain reaction (RT-qPCR) analysis of selected endogenous retroviruses (ERVs) (HERV-E, HERV-F, HERV-K, HML-2, and ERVL), IFNs (IFN-α, IFN-β and IL-28) and ISGs (ISG15 and OASL) in human MCF-7 breast cancer cells treated with or without GSK-LSD1 for 6 days. The RT-qPCR data were normalized to GAPDH and then relative to DMSO. RT-qPCR was performed in duplicates and repeated two to three times. Error bars represent the standard error of mean (SEM). *p<0.05, **p<0.01, ***p<0.001, ns, not significant, as determined by unpaired t-test.
MCF-7, T47D, B16, LLC and D4m cells were cultured in normal DMEM supplemented with 10% FBS and 1% penicillin/streptomycin in 5% CO2 incubator at 37° C. All cell lines were cultured in 5% CO2 incubator at 37° C., and passaged every 2-3 days. […]
All reagents, buffers and containers used for RNA work were RNase-free grade or treated with 0.1% v/v DEPC (Sigma-Aldrich cat #D5758) if applicable, to eliminate RNase contaminants in this section and other relevant sections. […] The obtained cDNA samples were diluted and used for real-time quantitative PCR (RT-qPCR). […]
Of note, the PCR primers detected overall transcript levels of the corresponding ERV subfamilies, which may be transcribed from multiple genomic loc. […]

[2] = test system: AGO2; assay: Mass spectrometry of lysine methylation on FH-AGO2 purified from MCF-7 cells; format: cell-based, human; conditions: overexpressed FH-AGO2 from MCF-7 cells, mass spectrometry (FIG. 5I)
Description: FIG. 5I is a picture of immunoblots showing purified FH-AGO2 from MCF-7 cells treated by LSD1 KD or GSK-LSD1 as determined by mass spectrometry for the identification of lysine methylation. sh-Ctrl ([…]; SEQ ID NO: 156) and sh-LSD1, GSK-LSD1(VGK(me)[…]; SEQ ID NO: 157).
To investigate whether LSD1 regulates AGO2 stability by controlling AGO2 methylation, overexpressed FH-AGO2 from MCF-7 cells with or without LSD1 inhibition were purified and used for mass spectrometry analysis. […] To validate this finding, an antibody was raised that preferentially recognized AGO2 peptides mono-methylated at K726 (K726me1) compared with un-methylated or di-methylated peptides (FIG. 5J). Furthermore, this antibody detected increased K726me1 on ectopically expressed AGO2 when LSD1 was inhibited, which can be abrogated by substituting K726 with arginine (K726R) or alanine (K726A) (FIGS. 5K and 5L). […] To gain more insights into this regulation, an in vitro demethylation assay was performed using immunoprecipitated FH-LSD1, FH-LSD1-K661A (catalytically compromised LSD1), FH-AGO2 and FH-AGO2-K726R proteins purified from mammalian cells. FH-LSD1 but not FH-LSD1-K661A decreased K726me1 level on FH-AGO2, but had no observable effects on FH-AGO2-K726R (FIGS. 5N and 5O).

For `Cl.Cl.c1ccc([C@@H]2C[C@H]2NC2CCNCC2)cc1` (relative stereo) [GSK-LSD1, rel-N-[(1R,2S)-2-Phenylcyclopropyl]-4-Piperidinamine hydrochloride (1:2)], the “up-regulation of selected ERVs, type I and type III interferons and interferon-stimulated genes (ISGs)” value [1] was “significantly induce the up-regulation” and the “methylation of AGO2 lysine 726 (K726)” value [2] was “consistently mono-methylated”.
